Read-outs that look alike come from different tables or passages of the source.
How the values were obtained:
[1] = system: C33A (cervical carcinoma); assay: sulforhodamine B cell cytotoxicity assay, C33A; type: cell-based, human; conditions: for IC50: Homo sapiens, C-33-A
Experimental: (§1) The human cancer cell lines—KB (oral squamous cell carcinoma). C33A (cervical carcinoma), MCF-7 (breast adenocarcinoma), A549 (lung carcinoma) and mouse embryo fibroblast (NIH3T3) were obtained from American Type Culture Collection (ATCC), USA. These cells were grown in recommended media supplemented with 10% FBS, 50 μg/mL gentamycin and 2.5 μg/mL amphotericin B in a 5% CO2 humidified atmosphere at 37° C. Cells below 15 passage level were used for this study. A colorimetric sulforhodamine B assay was used for the measurement of cell cytotoxicity. 1×10^4 cells (in 180 μL) were added to each well of 96-well plate and incubated overnight to allow for cell attachment. Cells were then treated with serial two-fold dilutions of test compounds (100 to 1.6 μM) and untreated cells receiving the same volume of medium served as control. After 48 h of exposure, cells were fixed with ice-cold 50% TCA, stained with 0.4% (w/v) SRB in 1% acetic acid, washed and air dried. Bound dye was dissolved in 150 μL of 10 mM tris base. The plates were read at 540 nm absorbance on plate reader (Polarstar Galaxy, BMG, Germany). The cytotoxic effects of compounds were calculated as % inhibition in cell growth as per the formula […].

[2] = system: human cancer cell lines; assay: in vitro anticancer activity, cell line panel (cell line not specified); type: cell-based; conditions: poor activity or lack of activity against other cell lines
Experimental: as §1

[3] = animal weight and overt toxicity in the xenograft study; type: in vivo, SCID mice; conditions: for Average Animal weight: 100 mg/kg daily oral upto 15 days
Experimental: (§2) The in vivo efficacy studies were performed using human tumor xenografts in SCID mice. Human cervical cancer cells (HeLa) were injected subcutaneously (1×10^7 cells in 100 μl HBSS medium) on the right flank of each mouse. Tumor bearing mice were divided randomly into treatment groups and the treatment schedules began on day 7 of the xenograft. The test compound (S009-0131) was administered orally to each mouse at a daily dose of 100 mg/kg body weight, for 15 days. The standard anti-cancer drug Adriamycin (ADR) was used as ‘positive’ control and given to each mouse as an i.v. dose of 2 mg/kg body weight, Q7d×3 ([…]). The group of vehicle treated animals served as ‘negative’ control.
(§3) The tumor volume, body weight and signs of overt toxicity were monitored and recorded for the entire duration of the experiment (60 days). Tumor volumes were calculated using the formula (a×b2)/2, where a, b are two longest perpendicular diameters. Tumor growth was expressed in terms of relative tumor volume (RTV) which is the ratio of tumor volume on a particular day to the tumor volume on day 1 of the study. Tumor growth inhibition index (T/C) was calculated as follows: T/C=Average RTV of test group mice/Average RTV of control group mice.

[4] = system: A549 (lung carcinoma); assay: sulforhodamine B cell cytotoxicity assay, A549; type: cell-based; conditions: Homo sapiens, Table 2, SRB assay, 48 h of exposure
Experimental: as §1

[5] = system: KB (oral squamous cell carcinoma); assay: sulforhodamine B cell cytotoxicity assay, KB; type: cell-based; conditions: Homo sapiens; Table 2; SRB assay, 48 h of exposure
Experimental: as §1

[6] = system: HeLa Human cervical cancer cells; assay: human tumor xenograft in SCID mice, tumor growth; type: in vivo; conditions: for T/C (tumor growth inhibition index): 100 mg/kg daily oral upto 15 days; for RTV (relative tumor volume): 100 mg/kg p.o. daily up to 15 days
Experimental: as §2, §3

[7] = system: MCF-7 (breast adenocarcinoma); assay: sulforhodamine B cell cytotoxicity assay, MCF-7; type: cell-based; conditions: Homo sapiens, MCF7; Table 2; SRB assay, 48 h of exposure
Experimental: as §1

[8] = system: mouse embryo fibroblast (NIH3T3); assay: sulforhodamine B cell cytotoxicity assay, NIH3T3 non-cancer cells; type: cell-based
Experimental: as §1

CCOC(=O)c1cc2cc(C=CC(=O)c3ccc(C)cc3)cc(C(C)CC)c2oc1=O (stereo not shown) [Example S009-0131, Ethyl 8-sec-butyl-2-oxo-6-(3-oxo-3-p-tolylprop-1-enyl)-2H-chromene-3-carboxylate]
IC50 ([1]; Table 1, SRB assay, 48 h of exposure, read-out: IC50 C33A (cervical cancer)): 3.59 µM | IC50 ([1]; Table 2, SRB assay, 48 h of exposure, read-out: IC50 C33A (Cervical)): 3.59 µM | IC50 ([1]; read-out: IC50 against the C33A cell line): 3.59 µM | activity against cervical cancer (C33A) ([1]; in words): highly active | selectivity among cell lines [2]: most selective | Average Animal weight ([3]; day 1): 24.2 grams | Average Animal weight ([3]; day 5): 24.2 grams | Average Animal weight ([3]; day 9): 23.5 grams | Average Animal weight ([3]; day 12): 18.5 grams | Average Animal weight ([3]; day 15): 22.6 grams | Average Animal weight ([3]; day 19): 22.4 grams | Average Animal weight ([3]; day 22): 23.0 grams | Average Animal weight ([3]; day 25): 23.2 grams | Average Animal weight ([3]; day 29): 23.6 grams | Average Animal weight ([3]; day 33): 23.3 grams | Average Animal weight ([3]; day 37): 23.0 grams | Average Animal weight ([3]; day 41): 23.4 grams | Average Animal weight ([3]; day 44): 23.8 grams | Average Animal weight ([3]; day 51): 23.4 grams | toxicity to the animals (loss of weight) ([3]; during the period of the study): apparently non-toxic | IC50 [4]: 32.8 µM | IC50 [5]: 18 µM | activity compared with standard drug adriamycin ([6]; HeLa xenograft, SCID mice): somewhat better than that of the standard drug adriamycin | T/C (tumor growth inhibition index) ([6]; day 1): 1 | RTV (relative tumor volume) ([6]; day 1): 1 | T/C (tumor growth inhibition index) ([6]; day 5): 0.58 | RTV (relative tumor volume) ([6]; day 5): 0.76 | T/C (tumor growth inhibition index) ([6]; day 9): 0.48 | RTV (relative tumor volume) ([6]; day 9): 0.79 | T/C (tumor growth inhibition index) ([6]; day 12): 0.61 | RTV (relative tumor volume) ([6]; day 12): 1.21 | T/C (tumor growth inhibition index) ([6]; day 15): 0.39 | RTV (relative tumor volume) ([6]; day 15): 1.28 | T/C (tumor growth inhibition index) ([6]; day 19): 0.28 | RTV (relative tumor volume) ([6]; day 19): 1.01 | T/C (tumor growth inhibition index) ([6]; day 22): 0.33 | RTV (relative tumor volume) ([6]; day 22): 1.73 | T/C (tumor growth inhibition index) ([6]; day 25): 0.29 | RTV (relative tumor volume) ([6]; day 25): 1.82 | T/C (tumor growth inhibition index) ([6]; day 29): 0.33 | RTV (relative tumor volume) ([6]; day 29): 2.39 | T/C (tumor growth inhibition index) ([6]; day 33): 0.42 | RTV (relative tumor volume) ([6]; day 33): 4.20 | T/C (tumor growth inhibition index) ([6]; day 37): 0.42 | T/C (tumor growth inhibition index) ([6]; day 41): 0.44 | T/C (tumor growth inhibition index) ([6]; day 44): 0.45 | T/C (tumor growth inhibition index) ([6]; day 51): 0.38 | tumor volumes relative to the vehicle control ([6]; oral administration, mice bearing HeLa cells): significant reduction of tumor volumes | IC50 [7]: 81.1 µM | IC50 ([8]; Table 1, SRB assay, 48 h of exposure, read-out: IC50 NIH3T3 (mouse fibroblast)): > 150 µM | IC50 ([8]; Table 2, SRB assay, 48 h of exposure, read-out: IC50 NIH3T3 (Non-cancer, fibroblast)): > 150 µM | IC50 ([8]; read-out: IC50 fibroblast cells NIH3T3): > 150 µM

— patent US8815940B2, “Coumarin-chalcones as anticancer agents” (Council of Scientific & Industrial Research, priority 2010, dated 2014)
